# Tests used:
# [1] = tested on: human lung normal fibroblasts (IMR-90); experiment: MTT cytotoxicity to normal cells, IMR-90; format: cell-based; conditions: 48 hours, read-out: IC50, proliferation of IMR-90
# Protocol: FIGS. 3A and 3B show the effects of Compound 75 on cytotoxicity to normal cell lines. Cells were treated with DMSO or different concentrations of Compound 75 for 48 hours and cell viability was assessed by MTT assay. […] Data are expressed as mean t S.D. N values greater than 3. * P<0.05; ** P<0.01; *** P<0.001, compared with the control group.
# The effects on cell viability of the HSP90/HDAC6 dual inhibitors as described in Synthesis Examples (such as Compounds 63, 64, and 66 to 76) were evaluated. Cells were seeded in 96-well plates (5000 cells/well). The next day, the serially diluted drugs were added into the wells and incubated at 37° C. for 48 h. Cell viability was measured by the MTT assay and is expressed as percentages of surviving drug-treated cells relative to untreated control cells. The IC50 was calculated by non-linear regression analysis.
# The cytotoxicity to normal cells of Compound 75 was evaluated.
# [2] = tested on: PD-L1 expression in HCT116, LS174T, Mia paca-2, BXPC3, A549 and CT26 cells; experiment: IFN-γ-induced cell membrane PD-L1 in different cancer cell lines by flow cytometry; format: cell-based, human; mouse; conditions: Mia paca-2, BXPC3, A549, CT26, co-treated 48 hours
# Protocol: The cells were tested in 6-well plates with 32×10^4 cells/well and co-treated with Compound 75 for 48 hours and analyzed by flow cytometry. Bar, SD. […] The effects of the HSP90/HDAC6 dual inhibitors as described in Synthesis Examples (such as Compounds 63, 64, and 66 to 76) on PD-L1 expression were evaluated. Cells were seeded in 6-well plates (3.2×10^5 cells/well) and treated on the next day with […] and compounds or DMSO (vehicle) at indicated concentrations for 48 h. The treated cells were suspended (3×10^5 cells/tube) and stained with PD-L1 antibody (Invitrogen, Waltham, USA) and FITC-conjugated secondary antibodies on ice for 1 h. The fluorescence signal of the cells was analyzed by FASCalibur flow cytometer and CellQuest software (BD Biosciences, San Jose, CA, USA). Using flow cytometry, whether Compound 75 could downregulate […]-induced PD-L1 performance in different cancer cell lines was evaluated, namely human colorectal cancer cell lines (HCT116 and LS174T), human pancreatic cancer cell lines (Mia paca-2 and BXPC3), human lung cancer cell line (A549) and mouse colorectal cancer cell line (CT26).
# CT26 tumor = CT26 tumor model, Compound 75 combined with CPT-11; format: in vivo, mouse; conditions: Compound 75 50 mg/kg plus CPT-11 20 mg/kg
# Protocol: CT26 was injected subcutaneously into immunocompetent mice (BALB/c). The mice were treated with CPT-11 or combined Compound 75 with CPT-11 when the tumor grew to 50-100 mm^3. CPT-11 was given at 20 mg/kg for 7 consecutive days; compound 75 was given at 50 mg/kg every 2 days (8 doses in total, with suspension after day 14). […] Bar, S.E.M.
# Whether Compound 75 could enhance the tumor suppressive effect of chemotherapeutic agents was evaluated. Control (vehicle), CPT-11 (20 mg/kg), or Compound 75 (50 mg/kg) was administered in combination with CPT-11 to mice and sacrificed them on day 25 as shown in FIG. 13A.
# [3] = tested on: colorectal cancer tumors (CT26); experiment: CT26 tumor model, Compound 75 and Anti-PD1 alone and combined; format: in vivo
# [4] = Anti-PD1 combination study, Compound 75 50 mg/kg/2 days
compound,measurement,setting,value
"COc1ccc(N(Cc2ccc(C(=O)NO)cc2)C(=O)c2cc(C(C)C)c(O)cc2O)cc1 [Compound 75, 2,4-Dihydroxy-N-(4-hydroxycarbamoyl-benzyl)-5-isopropyl-N-(4-methoxy-phenyl)-benzamide]",IC50,[1],> 20 µM
same,IFN-γ-induced cell membrane protein PD-L1 expression,[2],inhibits all IFN-7-induced cell membrane protein PD-L1 expression
same,"body weight, combined therapy versus CPT-11 alone",CT26 tumor,no significant difference
same,tumor suppressive effect in combination with CPT-11,CT26 tumor; day 25,significantly enhanced the effect of CPT-11 therapy
same,body weight,[3]; [4],no significant change in body weight
same,toxicity to mice,[3]; [4],not significantly toxic
same,"treatment effect on CT26 tumor, agent alone",[3]; Compound 75 50 mg/kg/2 days or Anti-PD1 200 μg alone,limited
same,"tumor growth, combined treatment with Anti-PD1",[3]; Compound 75 50 mg/kg/2 days plus Anti-PD1 200 μg,significantly inhibited tumor growth

# — patent US20240398823A1, “DUAL INHIBITOR OF HISTONE DEACETYLASE 6 AND HEAT SHOCK PROTEIN 90” (TAIPEI MEDICAL UNIVERSITY, priority 2021, published 2024)
